Where two headings read alike, the source gives them in different places.
Assays:
enterococcus = details: cited from earlier work
[1] = incorporation of D—Ala—D—Lac by VRE; cited from earlier work
[2] = Hydrolysis of D—Ala—D—Lac depsipeptide derivative 5 in aqueous phosphate buffer, followed by HPLC; type: biochemical; details: substrate 5 0.5 mM, phosphate buffer pH 7.0, 37° C.; for effect on the rate of hydrolysis over buffer: peptides 12 mM
Method: The ability of peptide 4a in cleaving the substrate 5 was assessed in aqueous phosphate buffer pH=7 at 37° C. Stock solutions of 16 mM of 5 and 130 mM of peptide were made in water. Phosphate buffer solution of 25 mM was made by adjusting the pH of a K2HPO4 solution to 7.0 by addition of concentrated HCl. To a 1.5 mL glass vial (Waters) were added 5 μL stock solution of 5 and 15 μL stock solution of peptide, followed by 135 μL buffer. The volume was adjusted to 160 μL by addition of water. Vials were kept in an incubator at 37° C. and 2 μL aliquots were taken every 3 h. Each aliquot was diluted with water to 5 μL and 2 μL were injected in HPLC. Separation of components was carried out on a reverse phase column C18 (Waters) using a gradient water/acetonitrile (0.1% TFA).
Using HPLC and monitoring the p-NO2-phenyl derivative by UV at 275 nm, we could easily follow the disappearance of D—Ala—D—Lac derivative 5 and the formation of the hydrolyzed product 4. Under these conditions, we observed a 20% cleavage of the depsipeptide in 24 hrs. […] This proves that the whole structural assembly is necessary for the reaction to occur and that the reaction is not an artifact resulted by a change in the pH of the media due to the presence of the amine functionality.
N-acylated prolinol derivatives (FIG. 5) are the simplest structures that could fulfill such requirements. Their primary alcohol functionality forms an internal H-bond with the amide, the structures allow for the addition of the […] (NH2) through various linkers and moreover, are chiral molecules. The derivatives were tested for their ability to cleave 5 in aqueous phosphate buffer pH=7.0 at 37° C. (FIG. 6). […] One explanation for the higher activity of the very simple molecule SProC5 compared to 4a is the enhanced nucleophilicity of its hydroxyl (H position in H^1 NMR 7.59 ppm vs 6.62 ppm). Activity declines in the series with the decrease of the chain length from 5 carbons to 1 carbon. […] To confirm these speculations we compared the chemical shifts of the OH and NH in the H^1 NMR spectra of the NHBoc protected SProCn series (Table 1).
Substrate 5 was used at 0.5 mM, while prolinol derivatives were run at 12 mM. The graph is the average of three separate assays (FIG. 6).
The ability of peptide 4a in cleaving the substrate 5 was assessed in aqueous phosphate buffer pH 7 at 37° C. Using HPLC and monitoring the p-NO2-phenyl derivative by UV at 275 nm, we could easily follow the disappearance of D—Ala—D—Lac derivative 5 and the formation of the hydrolyzed product 4. […] A 20% hydrolysis of D—Ala—D—Lac in the presence of 4a was observed after 24 h.
The prolinol derivatives were additionally, tested for their ability to cleave 5 in aqueous phosphate buffer pH 7.0 at 37° C. […]

[3] = Combinatorial library screening on beads against red dye-labeled substrate 1; details: substrate 1 in 12DCE or DMF, 3-5 days
Method: Substrate 1 is treated with combinatorial libraries of potential nucleophiles on solid phase synthesis beads (2), and then those library members are selected that covalently linked the dye to a bead (3). This could be possible assuming that noncovalently bound material would be washed away with a polar solvent (Scheme 2). [drawing 4]
The assay for screening these libraries against 1 involves shaking a desired amount of library beads with the solution of labeled substrate for a period of time. To the library beads were added 200 μL solution of substrate 1 in 12DCE (or DMF), and the mixture was rotated for 3-5 days in a small glass vial. DMF was added and shaking continued for 1 h. Solvent was removed and the washing was repeated several times. One wash was performed with one drop of benzylamine added to DMF to remove any remaining physically bound substrate. The strongly red beads were picked individually in 1.5 μL DMF (in 25 μL capillaries) and photolysed for 6 h under a short wave UV lamp. Decoding was achieved by injecting the content of each capillary in EC-GC and comparing the chromatogram to a standard (20,21).
After the reaction occurred, the label-carrying beads were selected and analyzed (20,21). The initial assays were performed in 1,2-dichloroethane (12DCE) at a concentration of 2.3 mM in substrate 1.
The assay for screening these libraries against 1 involved shaking a desired amount of library beads with the solution of labeled substrate for a period of time. After the reaction occured, the label-carrying beads were selected and analyzed. The initial assays were performed in 1,2-dichloroethane (12DCE) at a concentration of 2.3 mM in substrate 1. After 3 days of shaking, the beads were extensively washed with dimethylformamide (DMF) and once with a diluted solution of benzylamine in DMF to remove any physically bound substrate (FIGS. 9A and 9B).

Compound	effect on the rate of hydrolysis over buffer [2]	activity in bead screening (red beads / active sequence) [3]	other results
CN[C@H](CC(C)C)C(=O)N[C@H]1C(=O)N[C@@H](CC(N)=O)C(=O)N[C@H]2C(=O)N[C@H]3C(=O)N[C@H](C(=O)N[C@H](C(=O)O)c4cc(O)cc(O)c4-c4cc3ccc4O)[C@H](O)c3ccc(c(Cl)c3)Oc3cc2cc(c3O[C@@H]2O[C@H](CO)[C@@H](O)[C@H](O)[C@H]2O[C@H]2C[C@](C)(N)[C@H](O)[C@H](C)O2)Oc2ccc(cc2Cl)[C@H]1O [vancomycin]	–	–	MIC of vancomycin (enterococcus; 10% of the peptidoglycan altered to D—Ala—D—Lac): 32 µg/mL; MIC of vancomycin (enterococcus; unaltered peptidoglycan): 2 µg/mL; decrease of affinity of vancomycin for the peptidoglycan layer [1]: over 1000 fold
BnNHD—Pro—L—Ser(OH)NHCONMe2 [compound 6]	No significant effect	–	–
BnNHL—LysNHAc [compound 8]	No significant effect	–	–
BnNHL—Lys—D—Pro—L—Ser(tBut)CONMe2 [compound 7]	No significant effect	–	–
BnNHL—Lys—D—Pro—L—SerCONMe2 [4a]	–	–	cleavage of the depsipeptide in 24 hrs ([2]; compound 12 mM, 24 h): 20%
D—Asn—L—Lys—L—Pro—L—SerNH2	–	active sequence	–
D—Lys—L—Pro—D—Ser dimethylurea	–	never found as an active sequence	–
L—Lys—D—Pro—L—Ser dimethylurea	–	an active sequence found more frequently in the assays	–
